Test results: US8530465B2, “1, 2-disubstituted amido-anthraquinone derivatives, preparation method and application thereof” (National Defense Medical Center, priority 2010, dated 2013)

Columns and labels:
hTERT = assay: Secreted alkaline phosphatase (SEAP) assay, PhTERT-SEAP (H1299); type: cell-based; conditions: Homo sapiens, 24 hours; for activity at 1 µM: NCI-H1299, Conc. 1 μM, read-out: Relative SEAP activity (%); for activity at 10 µM: NCI-H1299, Conc. 10 μM; for activity at 10 µM / activity at 100 µM: read-out: Relative SEAP activity (%) (converted); for activity at 100 µM: NCI-H1299, Conc. 100 μM
Summary of the method: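 Stable H1299 clone carrying the −3338 to +1 bp hTERT promoter upstream of SEAP; ~10^4 cells/well treated with varying drug amounts for 24 h at 37° C. Media heat-treated 65° C. 10 min, mixed with diethanolamine/MgCl2/L-homoarginine buffer and 12 mM p-nitrophenyl phosphate final; SEAP activity taken as rate of A405 increase.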

SR = assay: NCI drug screen, SR; type: cell-based, human; conditions: SR (Leukemia); 1.00E−5 Molar
Protocol: (§1) In brief, cellular protein levels were determined after 48 hours of drug exposure by sulforhodamine B colorimetry. Through the use of a time 0 cell control, the cell growth can be determined for each cell line thus allowing calculations of the 50% growth inhibitory concentration (GI50), the total growth inhibition (TGI), and the 50% lethal concentration (LC50). Comparison to plates not exposed to drug permits determination of concentration and times of exposure conferring 50% net growth inhibition (GI50), TGI, and 50% cell kill (LC50).
(§2) The screening system in United State National Cancer Institute (NCI) is consisted of 60 kinds of different human cancer cells, which can be used to assay the growth-inhibiting ability or cell toxicity of a compound against various cancer and tumor at a certain concentration.

RPMI-8226 = assay: NCI drug screen, RPMI-8226; type: cell-based, human; conditions: RPMI-8226 (Leukemia); 1.00E−5 Molar
Protocol: as §1, §2

NCI-H522 = assay: NCI drug screen, NCI-H522; type: cell-based, human; conditions: NCI-H522 (Non-Small Cell Lung Cancer); 1.00E−5 Molar
Protocol: as §1, §2

SNB-75 = assay: NCI drug screen, SNB-75; type: cell-based, human; conditions: SNB-75 (CNS Cancer); 1.00E−5 Molar
Protocol: as §1, §2

MALME-3M = assay: NCI drug screen, MALME-3M; type: cell-based, human; conditions: MALME-3M (Melanoma); 1.00E−5 Molar
Protocol: as §1, §2

IGROV1 = assay: NCI drug screen, IGROV1; type: cell-based, human; conditions: IGROV1 (Ovarian Cancer); 1.00E−5 Molar
Protocol: as §1, §2

CAKI-1 = assay: NCI drug screen, CAKI-1; type: cell-based, human; conditions: CAKI-1 (Renal Cancer); 1.00E−5 Molar
Protocol: as §1, §2

H1299 = assay: MTT assay, PhTERT-SEAP (H1299); type: cell-based, human; conditions: H1299; SEAP and MTT analysis
Summary of the method: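 Cultured cells received MTT for 4 h at 37 °C, then lysis buffer overnight at 37 °C. Optical density was read at 550 nm.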

| SMILES | activity at 1 µM (hTERT) | activity at 10 µM (hTERT) | activity at 100 µM (hTERT) | Growth Percent (SR) | Growth Percent (RPMI-8226) | Growth Percent (NCI-H522) | Growth Percent (SNB-75) | Growth Percent (MALME-3M) | Growth Percent (IGROV1) | Growth Percent (CAKI-1) | inhibitory activity among compounds CC-35 to CC-50 (H1299) |
| --- | --- | --- | --- | --- | --- | --- | --- | --- | --- | --- | --- |
| Cc1ccc(C(=O)Nc2ccc3c(c2NC(=O)c2ccc(C)cc2)C(=O)c2ccccc2C3=O)cc1 [CC-04, 1,2-bis-(4-methylbenzamido)-anthraquinone] | 108 ± 9.03% | 97.1% | 30.9% | 87.69% | 101.77% | 72.05% | 102.26% | 127.16% | 78.71% | 94.89% | – |
| Cc1ccc(C(=O)Nc2c(NC(=O)CCl)ccc3c2C(=O)c2ccccc2C3=O)cc1 [CC-12, 1-(4-methylbenzamido)-2-(chloroacetamido)-anthraquinone] | 110 ± 2.99% | -2.49% | -2.47% | −19.84% | – | 57.88% | 6.31% | −22.41% | 51.41% | – | – |
| O=C(CCl)Nc1ccc2c(c1NC(=O)Cc1ccccc1)C(=O)c1ccccc1C2=O [CC-23, 1-[2-(phenyl)acetylamino]-2-(chloroacetamido)-anthraquinone] | 84.8 ± 3.12% | 9.49% | 7.43% | −31.25% | – | 43.37% | 109.14% | 47.07% | 41.03% | – | – |
| Cc1ccc(C(=O)Nc2c(NC(=O)CN3CCCC3)ccc3c2C(=O)c2ccccc2C3=O)cc1 [CC-38, 1-(4-methylbenzamido)-2-[2-(tetrahydro-1H-1-pyrrolyl)acetylamino]-anthra quinone] | 81.7 ± 4.8% | 59.1% | 3.93% | – | – | 103.02% | 66.03% | 82.24% | 106.07% | 55.64% | – |
| Cc1ccc(C(=O)Nc2c(NC(=O)CN3CCN(C)CC3)ccc3c2C(=O)c2ccccc2C3=O)cc1 [CC-43, 1-(4-methylbenzamido)-2-[2-(4-methylpiperazino)acetylamino]-anthraquinone] | 77.4 ± 1.5% | 13.4% | 3.15% | −43.70% | – | 88.21% | 82.17% | 10.84% | 112.20% | 69.76% | higher inhibitory activity |
